Measurements: PubChem BioAssay AID504329 (Southern Research Specialized Biocontainment Screening …, 2011)

System: NS1A functional cell-based assay, percent inhibition
Assay: NS1A inhibition, H1N1 influenza, cell based functional assay (AID 504329)

Compound | IC50 [µM]
CN(C)c1ccnc2c[cH-]cc12.[Fe].c1ccc(-[c-]2[c-](-c3ccccc3)[c-](-c3ccccc3)[c-](-c3ccccc3)[c-]2-c2ccccc2)cc1 (configuration not stated) | 9.29
C#CCOCCOCCOCCNc1nc(N2CCN(C(=O)CCCCCCCCCCNC(=O)[C@H]([C@@H](C)CC)n3cc(CCCCN=C(N)N)nn3)CC2)nc(N2CCN(C(=O)CCCCCCCCCCNC(=O)[C@H](CO)n3cc(CCCCCN)nn3)CC2)n1 | 16.1
